target: T1, human IL-17AA (Homo sapiens, UniProt Q16552); test: IL-8 release assay in human epithelial keratinocytes adult (HEKa); assay type: cell-based; settings: HEKa cells, 3 ng/mL HEK-human IL-17AA + 10 ng/mL human TNFalpha; read-out: Rel EC50 IL-8 release assay
T1 construct: host or cells: HEK (human embryonic kidney) cells
T1 sequence (Q16552 24-155): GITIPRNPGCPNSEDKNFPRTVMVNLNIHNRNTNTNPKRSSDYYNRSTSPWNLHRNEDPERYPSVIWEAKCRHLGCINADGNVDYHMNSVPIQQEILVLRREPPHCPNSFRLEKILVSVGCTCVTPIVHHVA
Outline: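 Adult human epidermal keratinocytes stimulated 68-72 h at 37 °C with 3 ng/mL HEK-derived human IL-17AA plus 10 ng/mL TNF-alpha (final) in the presence of compound; TNF-alpha alone defines 100% inhibition. Secreted IL-8 measured by HTRF as percent of controls; relative IC50/Emax from four-parameter fit (r^2>0.9), cytotoxicity by PrestoBlue.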

**Q.** For `CC(C)n1nccc1C(=O)N[C@H](C(=O)Nc1ccc(-c2c(C3(O)CC3)cnn2C)cc1)C(C1CC1)C1CC1` [Example 368, N-[(1S)-1-(dicyclopropylmethyl)-2-[4-[4-(1-hydroxycyclopropyl)-2-methyl-pyrazol-3-yl]anilino]-2-oxo-ethyl]-2-isopropyl-pyrazole-3-carboxamide], which EC50 is on record?
**A.** 100 to 1000 nM

**Q.** `Cc1n[nH]c(C)c1-c1ccc(NC(=O)C(NC(=O)c2ccnn2C(C)C)C2CCC(C)(C)C2)cc1` (stereo not shown) [Example 265, N-[1-(3,3-dimethylcyclopentyl)-2-[4-(3,5-dimethyl-1H-pyrazol-4-yl)anilino]-2-oxo-ethyl]-2-isopropyl-pyrazole-3-carboxamide] was tested. Which EC50 did it give?
**A.** 100 to 1000 nM

**Q.** With `Cc1n[nH]c(C)c1-c1ccc(NC(=O)[C@@H](NC(=O)c2ccnn2C)C(C)C(C)C)cc1` (stereo partly shown) [Example 197] as the compound, how does the EC50 read?
**A.** 100 to 1000 nM

**Q.** With `Cc1nocc1C(=O)N[C@H](C(=O)Nc1ccc(-c2c(C)n[nH]c2C)cc1)C1CCCCCC1` [Example 59, N-[(1S)-1-cycloheptyl-2-[4-(3,5-dimethyl-1H pyrazol-4-yl)anilino]-2-oxo-ethyl]-3-methyl-isoxazole-4-carboxamide] as the compound, how does the EC50 read?
**A.** < 100 nM

**Q.** Which EC50 does the source give for `Cc1n[nH]c(C)c1-c1ccc(NC(=O)[C@@H](NC(=O)c2cnnn2-c2ccccc2)C2CCCCC2)cc1` [Example 61, N-[(1S)-1-cyclohexyl-2-[4-(3,5-dimethyl-1H-pyrazol-4-yl)anilino]-2-oxo-ethyl]-3-phenyl-triazole-4-carboxamide] here?
**A.** 100 to 1000 nM

**Q.** How did the EC50 turn out when `Cc1n[nH]c(C)c1-c1ccc(NC(=O)[C@@H](NC(=O)c2ccnn2C)C(C)C2CCC2)cc1` (single isomer, unassigned) [Example 195] was run?
**A.** 100 to 1000 nM

**Q.** With `CCC(CC)[C@H](NC(=O)OC(C)(C)C)C(=O)Nc1ccc(-c2c(C)ncn2C)cc1` [Example 89, tert-butyl N-[(1S)-1-[[4-(3,5-dimethylimidazol-4-yl)phenyl]carbamoyl]-2-ethyl-butyl]carbamate] as the compound, how does the EC50 read?
**A.** > 1000 nM

**Q.** `Cc1n[nH]c(C(C)O)c1-c1ccc(NC(=O)[C@@H](NC(=O)C2(F)CC2)C(c2ccccc2)c2ccccc2)cc1` (stereo partly drawn) [Example 442, N-[(1S)-1-benzhydryl-2-[4-[5-(1-hydroxyethyl)-3-methyl-1H-pyrazol-4-yl]anilino]-2-oxo-ethyl]-1-fluoro-cyclopropanecarboxamide] was tested. Which EC50 did it give?
**A.** 100 to 1000 nM

**Q.** `Cc1n[nH]c(C)c1-c1ccc(NC(=O)C(NC(=O)c2ccnn2C)C(c2ccccc2)C2CC2)cc1` (single isomer, unassigned) [Example 303, N-[1-[cyclopropyl(phenyl)methyl]-2-[4-(3,5-dimethyl-1H-pyrazol-4-yl)anilino]-2-oxo-ethyl]-2-methyl-pyrazole-3-carboxamide] was tested. Which EC50 did it give?
**A.** 100 to 1000 nM

**Q.** With `Cc1n[nH]c(C)c1-c1ccc(NC(=O)[C@@H](NC(=O)c2ccnn2C(C)C)[C@H]2CCOc3c(F)cc(F)cc32)cc1` [Example 279, N-[(1S)-1-[(4S)-6,8-difluorochroman-4-yl]-2-[4-(3,5-dimethyl-1H-pyrazol-4-yl)anilino]-2-oxo-ethyl]-2-isopropyl-pyrazole-3-carboxamide] as the compound, how does the EC50 read?
**A.** < 100 nM

**Q.** For `Cn1cncc1-c1ccc(NC(=O)[C@@H](NC(=O)OC2CC2)C2CCCCC2)cc1O` [Example 422, Cyclopropyl N-[(1S)-1-cyclohexyl-2-[3-hydroxy-4-(3-methylimidazol-4-yl)anilino]-2-oxo-ethyl]carbamate], which EC50 is on record?
**A.** > 1000 nM

**Q.** How did the EC50 turn out when `CC(C)n1nccc1C(=O)NC(C(=O)Nc1ccc(-c2c(C3CC3)n[nH]c2C2CC2)cc1)C(C1CC1)C1CC1` (single isomer, unassigned) [Example 384, N-[1-(dicyclopropylmethyl)-2-[4-(3,5-dicyclopropyl-1H-pyrazol-4-yl)anilino]-2-oxo-ethyl]-2-isopropyl-pyrazole-3-carboxamide] was run?
**A.** 100 to 1000 nM

**Q.** `CCn1nccc1C(=O)N[C@H](C(=O)Nc1ccc(-c2c(C)n[nH]c2C)cc1)C(C1CCC1)C1CCC1` [Example 36] was tested. Which EC50 did it give?
**A.** < 100 nM

Source: US11377425B1, “Small molecule modulators of IL-17” (LEO Pharma A/S, priority 2018, dated 2022)
